Results: ChEMBL document CHEMBL1201861, “Genomics of Drug Sensitity in Cancer screening data, Wellcome Trust Sanger Institute”

Tests used:
Assay in all cases: cells
D-502MG = type: functional, cell-based, Homo sapiens; conditions: Homo sapiens, D-502MG
Description: SANGER: Inhibition of human D-502MG cell growth in a cell viability assay.

D-542MG = type: functional, cell-based, Homo sapiens; conditions: Homo sapiens, D-542MG
Description: SANGER: Inhibition of human D-542MG cell growth in a cell viability assay.

GI-ME-N = type: functional, cell-based, Homo sapiens; conditions: Homo sapiens, GI-ME-N
Description: SANGER: Inhibition of human GI-ME-N cell growth in a cell viability assay.

JVM-3 = type: functional, cell-based; conditions: Homo sapiens
Description: SANGER: Inhibition of human JVM-3 cell growth in a cell viability assay.

KALS-1 = type: functional, cell-based, Homo sapiens; conditions: Homo sapiens, KALS-1
KMOE-2 = type: functional, cell-based; conditions: Homo sapiens
Description: SANGER: Inhibition of human KMOE-2 cell growth in a cell viability assay.

KP-N-YN = type: functional, cell-based; conditions: Homo sapiens
Description: SANGER: Inhibition of human KP-N-YN cell growth in a cell viability assay.

KS-1 = type: functional, cell-based, Homo sapiens; conditions: Homo sapiens, KS-1
Description: SANGER: Inhibition of human KS-1 cell growth in a cell viability assay.

L-363 = type: functional, cell-based; conditions: Homo sapiens
Description: SANGER: Inhibition of human L-363 cell growth in a cell viability assay.

MHH-NB-11 = type: functional, cell-based, Homo sapiens; conditions: Homo sapiens, MHH-NB-11
Description: SANGER: Inhibition of human MHH-NB-11 cell growth in a cell viability assay.

MOLT-16 = type: functional, cell-based; conditions: Homo sapiens
Description: SANGER: Inhibition of human MOLT-16 cell growth in a cell viability assay.

MZ7-mel = type: functional, cell-based, Homo sapiens; conditions: Homo sapiens, MZ7-mel
Description: SANGER: Inhibition of human MZ7-mel cell growth in a cell viability assay.

NCI-H1770 = type: functional, cell-based; conditions: Homo sapiens
Description: SANGER: Inhibition of human NCI-H1770 cell growth in a cell viability assay.

NCI-H69 = type: functional, cell-based; conditions: Homo sapiens
Description: SANGER: Inhibition of human NCI-H69 cell growth in a cell viability assay.

SBC-1 = type: functional, cell-based; conditions: Homo sapiens
Description: SANGER: Inhibition of human SBC-1 cell growth in a cell viability assay.

SK-LMS-1 = type: functional, cell-based, Homo sapiens; conditions: Homo sapiens, SK-LMS-1
Description: SANGER: Inhibition of human SK-LMS-1 cell growth in a cell viability assay.

TE-9 = type: functional, cell-based, Homo sapiens; conditions: Homo sapiens, TE-9
Description: SANGER: Inhibition of human TE-9 cell growth in a cell viability assay.

TGBC1TKB = type: functional, cell-based, Homo sapiens; conditions: Homo sapiens, TGBC1TKB
Description: SANGER: Inhibition of human TGBC1TKB cell growth in a cell viability assay.

UACC-257 = type: functional, cell-based, Homo sapiens; conditions: Homo sapiens, UACC-257
Description: SANGER: Inhibition of human UACC-257 cell growth in a cell viability assay.

VA-ES-BJ = type: functional, cell-based, Homo sapiens; conditions: Homo sapiens, VA-ES-BJ
Description: SANGER: Inhibition of human VA-ES-BJ cell growth in a cell viability assay.

Ca9-22 = type: functional, cell-based, Homo sapiens; conditions: Homo sapiens, Ca9-22
Description: SANGER: Inhibition of human Ca9-22 cell growth in a cell viability assay.

HCC1806 = type: functional, cell-based, Homo sapiens; conditions: Homo sapiens, HCC1806
Description: SANGER: Inhibition of human HCC1806 cell growth in a cell viability assay.

HCC1954 = type: functional, cell-based, Homo sapiens; conditions: Homo sapiens, HCC1954
Description: SANGER: Inhibition of human HCC1954 cell growth in a cell viability assay.

HT-1080 = type: functional, cell-based, Homo sapiens; conditions: Homo sapiens, HT-1080
Description: SANGER: Inhibition of human HT-1080 cell growth in a cell viability assay.

KU-19-19 = type: functional, cell-based, Homo sapiens; conditions: Homo sapiens, KU-19-19
Description: SANGER: Inhibition of human KU-19-19 cell growth in a cell viability assay.

KYSE-270 = type: functional, cell-based, Homo sapiens; conditions: Homo sapiens, KYSE-270
Description: SANGER: Inhibition of human KYSE-270 cell growth in a cell viability assay.

MC-IXC = type: functional, cell-based, Homo sapiens; conditions: Homo sapiens, MC-IXC
Description: SANGER: Inhibition of human MC-IXC cell growth in a cell viability assay.

MEL-HO = type: functional, cell-based, Homo sapiens; conditions: Homo sapiens, MEL-HO
Description: SANGER: Inhibition of human MEL-HO cell growth in a cell viability assay.

MIA PaCa-2 = type: functional, cell-based, Homo sapiens; conditions: Homo sapiens, MIA PaCa-2
Description: SANGER: Inhibition of human MIA-PaCa-2 cell growth in a cell viability assay.

NCI-H1437 = type: functional, cell-based, Homo sapiens; conditions: Homo sapiens, NCI-H1437
Description: SANGER: Inhibition of human NCI-H1437 cell growth in a cell viability assay.

NCI-H1623 = type: functional, cell-based, Homo sapiens; conditions: Homo sapiens, NCI-H1623
Description: SANGER: Inhibition of human NCI-H1623 cell growth in a cell viability assay.

NCI-H1793 = type: functional, cell-based, Homo sapiens; conditions: Homo sapiens, NCI-H1793
Description: SANGER: Inhibition of human NCI-H1793 cell growth in a cell viability assay.

NCI-H292 = type: functional, cell-based, Homo sapiens; conditions: Homo sapiens, NCI-H292
Description: SANGER: Inhibition of human NCI-H292 cell growth in a cell viability assay.

NCI-H358 = type: functional, cell-based, Homo sapiens; conditions: Homo sapiens, NCI-H358
Description: SANGER: Inhibition of human NCI-H358 cell growth in a cell viability assay.

NCI-N87 = type: functional, cell-based, Homo sapiens; conditions: Homo sapiens, NCI-N87
Description: SANGER: Inhibition of human NCI-N87 cell growth in a cell viability assay.

NY = type: functional, cell-based, Homo sapiens; conditions: Homo sapiens, NY
Description: SANGER: Inhibition of human NY cell growth in a cell viability assay.

OE33 = type: functional, cell-based, Homo sapiens; conditions: Homo sapiens, OE33
Description: SANGER: Inhibition of human OE33 cell growth in a cell viability assay.

PANC-03-27 = type: functional, cell-based, Homo sapiens; conditions: Homo sapiens, PANC-03-27
Description: SANGER: Inhibition of human PANC-03-27 cell growth in a cell viability assay.

RVH-421 = type: functional, cell-based, Homo sapiens; conditions: Homo sapiens, RVH-421
Description: SANGER: Inhibition of human RVH-421 cell growth in a cell viability assay.

SK-HEP1 = type: functional, cell-based, Homo sapiens, SK-HEP-1; conditions: Homo sapiens, SK-HEP1
Description: SANGER: Inhibition of human SK-HEP-1 cell growth in a cell viability assay.

SK-MEL3 = type: functional, cell-based, Homo sapiens, SK-MEL-3; conditions: Homo sapiens, SK-MEL3
Description: SANGER: Inhibition of human SK-MEL-3 cell growth in a cell viability assay.

SN12C = type: functional, cell-based, Homo sapiens; conditions: Homo sapiens, SN12C
Description: SANGER: Inhibition of human SN12C cell growth in a cell viability assay.

SNU-449 = type: functional, cell-based, Homo sapiens; conditions: Homo sapiens, SNU-449
Description: SANGER: Inhibition of human SNU-449 cell growth in a cell viability assay.

SW1990 = type: functional, cell-based, Homo sapiens; conditions: Homo sapiens, SW1990
Description: SANGER: Inhibition of human SW1990 cell growth in a cell viability assay.

T84 = type: functional, cell-based, Homo sapiens; conditions: Homo sapiens, T84
Description: SANGER: Inhibition of human T84 cell growth in a cell viability assay.

CWR22R = type: functional, cell-based, Homo sapiens; conditions: Homo sapiens, 22Rv1
Description: SANGER: Inhibition of human 22RV1 cell growth in a cell viability assay.

639-V = type: functional, cell-based, Homo sapiens; conditions: Homo sapiens, 639-V
Description: SANGER: Inhibition of human 639-V cell growth in a cell viability assay.

CAKI-1 = type: functional, cell-based, Homo sapiens; conditions: Homo sapiens, CAKI-1
Description: SANGER: Inhibition of human CAKI-1 cell growth in a cell viability assay.

CAL-85-1 = type: functional, cell-based; conditions: Homo sapiens
Description: SANGER: Inhibition of human CAL-85-1 cell growth in a cell viability assay.

CAPAN-1 = type: functional, cell-based, Homo sapiens; conditions: Homo sapiens, CAPAN-1
Description: SANGER: Inhibition of human CAPAN-1 cell growth in a cell viability assay.

## CNC(=O)c1cc(Oc2ccc(NC(=O)Nc3ccc(Cl)c(C(F)(F)F)c3)cc2)ccn1 [SORAFENIB]
D-502MG
  IC50: > 4000 nM
D-542MG
  IC50: > 4000 nM
GI-ME-N
  IC50: > 4000 nM
JVM-3
  IC50: > 4000 nM
KALS-1
  IC50: > 4000 nM
KMOE-2
  IC50: 2810 nM
KP-N-YN
  IC50: > 4000 nM
KS-1
  IC50: 3880 nM
L-363
  IC50: > 4000 nM
MHH-NB-11
  IC50: > 4000 nM
MOLT-16
  IC50: > 4000 nM
MZ7-mel
  IC50: 3660 nM
NCI-H1770
  IC50: > 4000 nM
NCI-H69
  IC50: > 4000 nM
SBC-1
  IC50: > 4000 nM
SK-LMS-1
  IC50: > 4000 nM
TE-9
  IC50: > 4000 nM
TGBC1TKB
  IC50: > 4000 nM
UACC-257
  IC50: > 4000 nM
VA-ES-BJ
  IC50: > 4000 nM

## CN(c1ncccc1CNc1nc(Nc2ccc3c(c2)CC(=O)N3)ncc1C(F)(F)F)S(C)(=O)=O [PF-00562271]
Ca9-22
  IC50: > 2560 nM
D-502MG
  IC50: > 2560 nM
D-542MG
  IC50: > 2560 nM
GI-ME-N
  IC50: > 2560 nM
HCC1806
  IC50: > 2560 nM
HCC1954
  IC50: > 2560 nM
HT-1080
  IC50: > 2560 nM
JVM-3
  IC50: > 2560 nM
KALS-1
  IC50: > 2560 nM
KMOE-2
  IC50: > 2560 nM
KS-1
  IC50: > 2560 nM
KU-19-19
  IC50: > 2560 nM
KYSE-270
  IC50: 1050 nM
L-363
  IC50: > 2560 nM
MC-IXC
  IC50: > 2560 nM
MEL-HO
  IC50: 1980 nM
MHH-NB-11
  IC50: 2130 nM
MIA PaCa-2
  IC50: > 2560 nM
MOLT-16
  IC50: > 2560 nM
MZ7-mel
  IC50: > 2560 nM
NCI-H1437
  IC50: > 2560 nM
NCI-H1623
  IC50: > 2560 nM
NCI-H1770
  IC50: > 2560 nM
NCI-H1793
  IC50: > 2560 nM
NCI-H292
  IC50: > 2560 nM
NCI-H358
  IC50: > 2560 nM
NCI-H69
  IC50: > 2560 nM
NCI-N87
  IC50: > 2560 nM
NY
  IC50: > 2560 nM
OE33
  IC50: > 2560 nM
PANC-03-27
  IC50: > 2560 nM
RVH-421
  IC50: > 2560 nM
SBC-1
  IC50: > 2560 nM
SK-HEP1
  IC50: > 2560 nM
SK-LMS-1
  IC50: > 2560 nM
SK-MEL3
  IC50: > 2560 nM
SN12C
  IC50: > 2560 nM
SNU-449
  IC50: > 2560 nM
SW1990
  IC50: > 2560 nM
T84
  IC50: > 2560 nM
CWR22R
  IC50: > 2560 nM
639-V
  IC50: > 2560 nM
CAKI-1
  IC50: > 2560 nM
CAL-85-1
  IC50: 1800 nM
TE-9
  IC50: > 2560 nM
TGBC1TKB
  IC50: > 2560 nM
UACC-257
  IC50: > 2560 nM
VA-ES-BJ
  IC50: 1900 nM
CAPAN-1
  IC50: > 2560 nM
